Assay [1] has as its target T1, In Vitro Assembled Tau filaments (full length tau 4R2N, T40 isoform) (Homo sapiens, UniProt P10636).
T1 construct: full length tau monomer (4R2N, T40 isoform)
As to the kind of experiment: Displacement binding assay with in vitro assembled tau filaments. Particulars: 0.4 uM tau filaments. The procedure:
In Vitro assembled tau filaments were prepared similarly to Barghorn et al, Methods Mol Biol. 2005, 299, 35-51.
Briefly, Twenty micromolar (uM) of full length tau monomer (4R2N, T40 isoform), was incubated at 37 degrees shaking for 14 days with 50 uM heparin, 2 mM DTT, and 0.04% sodium azide in 100 mM Sodium Acetate (NaOAC) buffer pH7.0. All concentrations listed are final concentrations. Samples of the mixture were taken at 0, 10, and 14 days, and filament formation was examined using Thioflavin T binding compared to a control sample of filaments.
For the displacement binding assay, compound dilutions (1000×) were added into the 96-well plate (150 nL per well). 100% (1 uM self-block (unlabeled Compound—Example 1 or Example 4 dependent on the ^3H-labeled input compound—Example 6 or 7, respectively)) and 0% (DMSO) controls were included in each assay plate. In Vitro Assembled Tau filaments diluted in assay buffer (PBS+0.1% BSA) were added at a final concentration of 0.4 uM per well. Subsequently, either ^3H compound of Example 7 or ^3H compound of Example 6 was added to each well at a final concentration of 8 nM. Incubation was carried out at room temperature (25° C.) for 90 minutes, and then the assay samples were filtered onto GF/B filter plates that had been blocked at least 1 hour with 50 uL 0.2% PEI using a PerkinElmer Filtermate 96-well plate harvester, washing 6 times with ice cold buffer (5 mM Tris, pH 7.4). Plates were dried in a vacuum oven at 37° C. for 1 hour, then plates were sealed on the back, and 50 ul of Microscint-20 was added to each well. The tops of the plates were sealed, and then plates were read in a PerkinElmer TopCount. Data analysis was performed using internally developed software (Assay Data Analyzer).

The test system of the next assay is amyloid plaques. As to the kind of experiment: In vitro autoradiography, human AD brain cortex slice (amyloid plaques, 6E10 stain on adjacent slice). Particulars: adjacent slice 6E10 positive. The format is binding. The procedure:
(§1) To assess presence of amyloid plaques and NFTs in the tested human brain samples, the adjacent human AD brain slices were used for autoradiography (ARG) and immunohistochemistry (IHC) studies. ARG was done using isotopically labeled compounds which bind selectively to amyloid plaques or NFTs. IHC was performed with antibodies for amyloid-beta (Aβ) (6E10 (Covance)) and phosphorylated tau (p-tau) (PHF6 (Covance)). Tissue homogenate binding was performed using human AD brain homogenates of cerebral cortex. Human brains from donor without neurological disorder were used as control in the same study. […]
(§2) The frozen human brain samples of Alzheimer's disease (AD) and non-AD were purchased from Analytic Biological Services Inc. Frozen brain slices (20 μm thickness) were prepared using a cryostat (Leica CM3050) and kept in sequential order. […] Total binding of radioligand in a brain slices was defined in the absence of competitor, and non-specific binding (NSB) was determined in the presence of competitor (1.0 μM unlabeled self block). […] After one week exposure, the plates were scanned in Fuji BAS 5000 Scanner, and the scanned images were analyzed using MCID 7.0 software. [^3H]-microscales (Amersham Biosciences, GE), were used for quantification of radioligand binding density. FIGS. 3 and 4 have ARG images detected through this method.

In the next assay the test system is NFTs. As to the kind of experiment: In vitro autoradiography, human AD brain slice, hippocampus (NFTs, PHF6 stain on adjacent slice). The format is binding. The procedure:
as §1, §2

[2] abbreviates: radioligand [3H] Example 7 at 8 nM, read-out: IC50, displacement of [3H] compound of Example 7 from in vitro assembled tau filaments.

Molecules are shown by their SMILES. Where two headings read alike, the source gives them in different places.

As a reminder, the IC50 is the point on the concentration scale where inhibition reaches its midpoint.

T1 sequence (P10636 1-441 isoform P10636-8): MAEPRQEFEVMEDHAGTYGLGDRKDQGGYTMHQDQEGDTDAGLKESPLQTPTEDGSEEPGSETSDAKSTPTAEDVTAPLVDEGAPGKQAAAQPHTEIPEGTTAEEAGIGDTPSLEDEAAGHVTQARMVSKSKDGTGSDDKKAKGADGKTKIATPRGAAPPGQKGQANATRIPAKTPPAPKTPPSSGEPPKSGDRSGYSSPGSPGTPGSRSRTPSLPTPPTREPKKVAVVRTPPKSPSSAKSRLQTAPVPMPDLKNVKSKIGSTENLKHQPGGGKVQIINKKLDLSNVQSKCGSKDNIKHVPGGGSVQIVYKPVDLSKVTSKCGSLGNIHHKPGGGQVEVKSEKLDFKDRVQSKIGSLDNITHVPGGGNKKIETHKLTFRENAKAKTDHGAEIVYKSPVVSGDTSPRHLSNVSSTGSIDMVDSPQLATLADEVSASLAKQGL

Consider `COc1ccccc1NC(=O)Nc1ccc(-c2cn(C)c3cnccc23)cc1` [Example 1, 1-(2-methoxyphenyl)-3-(4-(1-methyl-1H-pyrrolo[2,3-c]pyridin-3-yl)phenyl)urea], for which the IC50 in assay [1] (radioligand [3H] Example 6 at 8 nM, self-block, read-out: apparent IC50, inhibition of [3H] compound of Example 6 binding to in vitro assembled filaments) came out at 3 nM; in assay [1] (setting [2]), 13.6 nM. Consider `COc1ccccc1NC(=O)Nc1ccc(-c2cnn3c2CCC3)cc1` [Example 2, 1-(4-(5,6-dihydro-4H-pyrrolo[1,2-b]pyrazol-3-yl)phenyl)-3-(2-methoxyphenyl)urea], for which the IC50 in assay [1] (setting [2]) was 25.1 nM.

With `COc1ccccc1NC(=O)Nc1ccc(-c2cnn(C)c2)cc1` [Example 3, 1-(2-methoxyphenyl)-3-(4-(1-methyl-1H-pyrazol-4-yl)phenyl)urea], the IC50 in assay [1] (setting [2]) was found to be 33.6 nM.

In the case of `COc1ccccc1NC(=O)Nc1ccc(-c2cn(C)c3cnccc23)nc1` [Example 4, 1-(2-methoxyphenyl)-3-(6-(1-methyl-1H-pyrrolo[2,3-c]pyridin-3-yl)pyridin-3-yl)urea], the IC50 in assay [1] (setting [2]) was determined as 20.2 nM.

As to `Cn1cc(-c2ccc(NC(=O)Nc3ccccc3O)cn2)c2ccncc21` [Example 5, 1-(2-hydroxyphenyl)-3-(6-(1-methyl-1H-pyrrolo[2,3-c]pyridin-3-yl)pyridin-3-yl)urea], the IC50 in assay [1] (setting [2]) was 92 nM. Consider `[3H]c1cc(-c2cn(C)c3cnccc23)cc([3H])c1NC(=O)Nc1c([3H])cccc1OC` [Example 6, [^3H]-(2-methoxyphenyl)-3-(4-(1-methyl-1H-pyrrolo[2,3-c]pyridin-3-yl)phenyl)urea], for which, in the assay with amyloid plaques, the “binding to amyloid plaques in cortex region (autoradiography)” value is listed as “lack of”. In the assay on NFTs (5 nM radioligand, human AD brain slice, adjacent slice IHC), the “autoradiographic binding pattern compared with PHF6 stain of NFTs in hippocampus” value is reported as “consistent with the autoradiographic binding pattern”. Also, the “specificity for Tau over Aβ (ARG evidence)” value in the assay on NFTs (human AD brain slices, FIGS. 3 and 4) is given as “measurable specificity”.
